“And” between values parts separate entries of the source, which are not always exact repeats. Equal values may be shown once. Read-outs that look alike come from different tables or passages of the source.
Assay: 8-h oral plasma pharmacokinetics and tissue distribution, female wild-type, Cyp3a−/− and Cyp3aXAV mice
Type: in vivo
Conditions: 10 mg/kg oral; for Tmax: median (range); for Tmax / SIC (% of dose) / Fold change AUC0–8h / Fold change SIC (% of dose) / Fold increase Cbrain / Fold increase Cliver / Fold increase ratio (brain-to-plasma) / Fold increase ratio (liver-to-plasma) / Kp at 8 h / concentration at 8 h / half-life / Cmax / AUC(0-t): 8 h; for Fold change AUC0–8h / Fold change SIC (% of dose) / Fold increase Cbrain / Fold increase Cliver / Fold increase ratio (brain-to-plasma) / Fold increase ratio (liver-to-plasma): vs wild-type; for Kp at 8 h / concentration at 8 h / half-life / Cmax / AUC(0-t): female, po; for half-life: elimination half-life; for AUC(0-t): read-out: AUC0–8h
Description: Mice with similar average ages (and body weights) were randomly allocated in experimental groups as far as possible. Mice were maintained in a temperature-controlled and specific pathogen-free environment with a 12-h light and 12-h dark cycle and they received a standard diet (Transbreed, SDS Diets, Technilab-BMI, Someren, The Netherlands) and acidified water ad libitum. […] Given the objective main readout (repotrectinib plasma and tissue concentrations as measured by LC-MS/MS), no blinding method was applied.
Repotrectinib was dissolved in dimethyl sulfoxide (DMSO) at a concentration of 50 mg/mL. This stock solution was first diluted 3-fold with ethanol/polysorbate 80 (1/1; v/v), followed by further dilution with a 10 mM hydrochloric acid solution, yielding a dosing solution of 1 mg/mL, freshly prepared on the day of experiment. Final concentrations of the solvents in the administration solution were: 2%, 2%, 2%, and 94% (all v/v) for DMSO, ethanol, polysorbate 80, and 10 mM hydrochloric acid solution, respectively.
To minimize variation in absorption upon oral administration, mice were fasted for 2–3 h before repotrectinib (10 mg/kg body weight) was administered by gavage into the stomach at 10 µL/g body weight, with a blunt-ended needle. Tail vein serial blood samples were collected at 0.125, 0.25, 0.5, 1, 2 and 4 h using heparinized capillary tubes (Sarstedt, Nümbrecht, Germany) for the 8-h experiments. For the 4- and 2-h experiments, blood samplings were performed from the tail vein with the same schedule, but terminated at 2 and 1 h, respectively. Eight, four, or two hours after oral administration, mice were deeply anesthetized with 2–3% isoflurane, followed by cardiac puncture to collect blood in Eppendorf tubes containing heparin as an anticoagulant. Brain, liver, spleen, kidney, lung, small intestine, and testis were rapidly collected after sacrificing the mice by cervical dislocation. The small intestinal contents (SIC) were separated from small intestinal tissue (SI), which was flushed and rinsed with cold saline to remove any residual feces. Brain, liver, spleen, kidney, lung, SI, SIC, and testis were homogenized with 1, 3, 1, 2, 1, 3, 2, and 1 mL of 2% BSA (w/v), respectively. Plasma fraction was isolated from blood by centrifugation at 9000× g for 6 min at 4 °C. All samples were stored at −30 °C until analysis.
A sensitive and specific liquid chromatography-tandem mass spectrometry method using protein precipitation pre-treatment was adopted to quantify the concentration of repotrectinib in DMEM medium, plasma samples and tissue homogenates.
A non-compartmental model using the PKSolver add-in program for Microsoft Excel was adopted to calculate the pharmacokinetic parameters of repotrectinib. Oral availability was assessed by the plasma area under the curve (AUC), calculated using repotrectinib plasma concentration-time curves with the linear trapezoidal rule without extrapolating the infinity. Statistical testing was performed in Graphpad Prism7 (Graphpad Software, La Jolla, CA, USA). All data are presented as geometric means ± SD. Heteroscedastic data were log-transformed before applying statistical analysis. When differences between two groups were compared, the two-sided unpaired Student’s t test was used. One-way analysis of variance (ANOVA) was applied when multiple groups were compared, and the Bonferroni post hoc correction was used to accommodate multiple testing. Differences were considered statistically significant when P < 0.05.

[1] = FVB, mouse, plasma, 10 mg/kg, female Cyp3aXAV mice
[2] = FVB, mouse, plasma, 10 mg/kg, female Cyp3a−/− mice
[3] = FVB, mouse, plasma, 10 mg/kg, female wild-type mice

With C[C@H]1CNC(=O)c2cnn3ccc(nc23)N[C@H](C)c2cc(F)ccc2O1 [repotrectinib] the Tmax (FVB, mouse, plasma, female wild-type mice, read-out: Tmax) was 0.5 h, the “plasma AUC0–8h, fold decrease” value (female Cyp3aXAV mice compared to Cyp3a−/− mice) was 2.0 fold and the “SIC (% of dose)” value (female Cyp3aXAV mice) was 1.68 ± 0.63 % of dose. The “Fold change AUC0–8h” value (female Cyp3aXAV mice) was 1.16, the “Fold change SIC (% of dose)” value (female Cyp3aXAV mice) was 0.81 and the “Fold increase Cbrain” value (female Cyp3aXAV mice) was 1.57. For the same molecule, the “Fold increase Cliver” value (female Cyp3aXAV mice) was 1.13, the “Fold increase ratio (brain-to-plasma)” value (female Cyp3aXAV mice) was 1.54 and the “Fold increase ratio (liver-to-plasma)” value (female Cyp3aXAV mice) was 1.32. The “SIC (% of dose)” value (female Cyp3a−/− mice) was 5.11 ± 2.83 % of dose, the “Fold change SIC (% of dose)” value (female Cyp3a−/− mice) was 2.46 and the “Fold increase Cbrain” value (female Cyp3a−/− mice) was 4.16. For the same molecule, the “Fold increase Cliver” value (female Cyp3a−/− mice) was 4.11, the “Fold increase ratio (brain-to-plasma)” value (female Cyp3a−/− mice) was 0.85 and the “Fold increase ratio (liver-to-plasma)” value (female Cyp3a−/− mice) was 0.90. For the same molecule, the “Fold change AUC0–8h” value (female Cyp3a−/− mice, 10 mg/kg) was 2.3 and 2.31, the “SIC (% of dose)” value (female wild-type mice) was 2.08 ± 1.35 % of dose and the “Fold change AUC0–8h” value (female wild-type mice) was 1.00. The “Fold change SIC (% of dose)” value (female wild-type mice) was 1.00, the “Fold increase Cbrain” value (female wild-type mice) was 1.00 and the “Fold increase Cliver” value (female wild-type mice) was 1.00. The “Fold increase ratio (brain-to-plasma)” value (female wild-type mice) was 1.00, the “Fold increase ratio (liver-to-plasma)” value (female wild-type mice) was 1.00 and the Kp at 8 h (Cyp3aXAV (>99% FVB background), mouse, brain/plasma, 10 mg/kg, female Cyp3aXAV mice, read-out: Brain-to-plasma ratio) was 0.4 ± 0.09. The concentration at 8 h (Cyp3aXAV (>99% FVB background), mouse, liver, 10 mg/kg, female Cyp3aXAV mice, read-out: Cliver) was 1380 ± 440 ng/mL, the Kp at 8 h (Cyp3a−/− (>99% FVB background), mouse, brain/plasma, 10 mg/kg, female Cyp3a−/− mice, read-out: Brain-to-plasma ratio) was 0.22 ± 0.08 and the concentration at 8 h (Cyp3a−/− (>99% FVB background), mouse, liver, 10 mg/kg, female Cyp3a−/− mice, read-out: Cliver) was 5020 ± 1920 ng/mL. It also gave a concentration at 8 h (FVB, mouse, brain, 10 mg/kg, female Cyp3aXAV mice, read-out: Cbrain) of 80.2 ± 35.3 ng/g, a concentration at 8 h (FVB, mouse, brain, 10 mg/kg, female Cyp3a−/− mice, read-out: Cbrain) of 213 ± 53.7 ng/g and a concentration at 8 h (FVB, mouse, brain, 10 mg/kg, female wild-type mice, read-out: Cbrain) of 51.2 ± 17.8 ng/g. The Kp at 8 h (FVB, mouse, liver, 10 mg/kg, female Cyp3aXAV mice, read-out: Liver-to-plasma ratio) was 7.1 ± 2.11, the Kp at 8 h (FVB, mouse, liver, 10 mg/kg, female Cyp3a−/− mice, read-out: Liver-to-plasma ratio) was 4.81 ± 0.76 and the Kp at 8 h (FVB, mouse, liver, 10 mg/kg, female wild-type mice, read-out: Liver-to-plasma ratio) was 5.36 ± 0.54. The half-life [1] was 1.6 ± 0.2 h, the half-life [2] was 2.5 ± 0.9 h and the half-life [3] was 1.6 ± 0.4 h. For the same molecule, the Cmax [1] was 5560 ± 610 ng/mL, the AUC(0-t) [1] was 18900 ± 3650 ng·h/mL and the Cmax [2] was 8280 ± 930 ng/mL. For the same molecule, the AUC(0-t) [2] was 37600 ± 2830 ng·h/mL, the Cmax [3] was 4800 ± 1780 ng/mL and the AUC(0-t) [3] was 16300 ± 6350 ng·h/mL. For the same molecule, the Kp at 8 h (wild-type (>99% FVB background), mouse, brain/plasma, 10 mg/kg, female wild-type mice, read-out: Brain-to-plasma ratio) was 0.26 ± 0.12, the concentration at 8 h (wild-type (>99% FVB background), mouse, liver, 10 mg/kg, female wild-type mice, read-out: Cliver) was 1220 ± 650 ng/mL and the Tmax (female Cyp3aXAV mice) was 0.5 (0.25–0.5) h. The Tmax (female Cyp3a−/− mice) was 0.5 (0.125–0.5) h.

— PMC8619046, “ABCB1 and ABCG2 Control Brain Accumulation and Intestinal Disposition of the Novel ROS1/TRK/ALK Inhibitor Repotrectinib, While OATP1A/1B, ABCG2, and CYP3A Limit Its Oral Availability” (Pharmaceutics, 2021)
